# Test results: US11173146B2, “Selective activators of the intermediate conductance CA2+activated K+ channel KCa3.1 and their methods of use” (The Regents of the University of California, priority 2014, dated 2021)
# pEC50: −log10 of the molar value. Like-named read-outs stand apart in the source and are kept apart here.
# Experiments:
# KCa3.1 = KCa3.1 (Homo sapiens, UniProt O15554+P0DP23); assay: Whole-cell patch-clamp KCa3.1 activation (QPatch, HEK-293); format: cell-based; design: host or cells: HEK-293; conditions: for effect of structural change on KCa2.3 and KCa3.1 activation compared with SKA-31: SAR, FIG. 2; for reduction of potency compared with SKA-31: KCa3.1; for EC50: Appendix A, read-out: KCa3.1 EC50 (converted)
# Excerpt: Cells, Cell lines and Clones. […] The cloning of hKCa2.3 (19 CAG repeats) and hKCa3.1 has been previously described (Wulff et al., 2000). The hKCa2.3 clone was later stably expressed in COS-7 cells at Aurora Biosciences Corp., San Diego, Calif. Cell lines stably expressing other mammalian ion channels were gifts from several sources: hKCa1.1 in HEK-293 cells (Andrew Tinker, University College London); hKV2.1 in HEK293 cells (James Trimmer, UC Davis); KV11.1 (HERG) in HEK-293 cells (Craig January, University of Wisconsin, Madison); hNaV1.4 in HEK-293 cells (Frank Lehmann-Horn, University of Ulm, Germany), hNaV1.5 in HEK-293 cells (Christopher Lossin, University of California Davis), and hCaV1.2 in HEK-293 cells (Franz Hofmann, Munich, Germany).
# Electrophysiology. Experiments were conducted either manually with an EPC-10 amplifier (HEKA, Lambrecht/Pfalz, Germany) or on a QPatch-16 automated electrophysiology platform (Sophion Biosciences, Denmark). […] Patch pipettes were pulled from soda lime glass (micro-hematocrit tubes, Kimble Chase, Rochester, N.Y.) and had resistances of 2-3 MΩ. […] Free Ca^2+ concentrations were calculated with MaxChelator assuming a temperature of 25° C., a pH of 7.2 and an ionic strength of 160 mM. […] Na^+ aspartate Ringer was used as an external solution (in mM): 160 Na^+ aspartate, 4.5 KCl, 2 CaCl2, 1 MgCl2, 5 HEPES, pH 7.4, 290-310 mOsm. […] Reduction of both peak and tail current by the drug was determined. NaV1.7 currents were recorded with 30 ms pulses from −90 mV to −10 mV every 10 sec with a CsF-based pipette solution and normal Ringer as an external solution. CaV1.2 currents were elicited by 100-ms depolarizing pulses from −80 to 20 mV every 10 sec with a CsCl-based pipette solution and an external solution containing 30 mM BaCl2. Blockade of both Na^+ and Ca^2+ currents was determined as reduction of the current minimum.
# For automated electrophysiology experiments cells were grown to ˜70% confluency, rinsed in sterile PBS containing 0.02% EDTA, and lifted with 2 mL of TrypLE™ Express (Gibco, Grand Island, N.Y.) for ˜2 min. When cells were rounded but not detached, they were dislodged by gentle tapping, suspended in DMEM, centrifuged and resuspended in 1 ml of external solution, placed into the Qfuge tube and resuspended in 150-200 μL extracellular solution after one additional spin on the QPatch. Whole-cell patch-clamp experiments were then carried out using disposable 16-channel planar patch chip plates (QPlates; patch hole diameter approximately 1 μm, resistance 2.00±0.02 MΩ). […] In order to avoid rejection of cells with large KCa3.1 currents the minimum seal resistance for whole-cell requirement was lowered to 0.001 GΩ. […] Following establishment of the whole-cell configuration, cells were held at −80 mV and KCa3.1, KCa2.1 or KCa2.2 currents elicited by a voltage protocol that held at −80 mV for 20 ms, stepped to −120 mV for 20 ms, ramped from −120 to 40 mV in 200 ms and then stepped back to −120 mV for 20 ms. This pulse protocol was applied every 10 s. […] NaV1.2 currents from N1E-115 cells, NaV1.4 and NaV1.5 currents from stably transfected HEK cells were recorded with 20 ms pulses from −90 mV to 0 mV every 10 sec with a KF-based internal solution and normal Ringer as an external solution. Current slopes (in ampere per sec) were measured using the SophionQPatch software and exported to Microsoft Excel and Origin 7.0 (OriginLab Corp. MA) for analysis. […] Data fitting to the Hill equation to obtain EC50 and IC50 values was performed with Origin 7.0. Data are expressed as mean±SD.
Structure (SMILES),melting point,effect of structural change on KCa2.3 and KCa3.1 activation compared with SKA-31 (KCa3.1),other results
"Nc1nc2c(s1)CCc1ccccc1-2 [SKA-70, 4,5-Dihydronaphtho[1,2-d]thiazol-2-amine]",,reduced both potency and selectivity,
"Nc1nc(-c2ccc3ccccc3c2)cs1 [SKA-76, 2-amino-4-(2-naphthyl)thiazole]",,reduced both potency and selectivity,
"Nc1nc(-c2cccc3ccccc23)cs1 [SKA-75, 2-Amino-4-(1-naphthyl)thiazole]",,reduced both potency and selectivity,
"Nc1nc2c(s1)Cc1cc(F)ccc1-2 [SKA-71, 6-Fluoro-8H-indeno[1,2-d]thiazol-2-amine]",217 °C (dec.),reduced both potency and selectivity,
"Nc1nc2c(cc(F)c3ccccc32)s1 [SKA-106, 5-Fluoronaphtho[1,2-d]thiazol-2-amme]",,,reduction of potency compared with SKA-31 (KCa3.1): roughly 10 fold
"Nc1nc2c3c(ccc2s1)CCC3 [SKA-81, 7,8-Dihydro-6H-indeno[4,5-d]thiazol-2-amine]",195 °C,reduction in potency,
"Cc1nc2c(ccc3ccccc32)s1 [SKA-74, 2-methylnaphtho[1,2-d]thiazole]",,completely abolished activity,EC50 (KCa3.1): 7800 nM
"Nc1nc2c(s1)Cc1ccccc1-2 [SKA-69, 8H-Indeno[1,2-d]thiazol-2-amine]",,reduced both potency and selectivity,
"Cc1nc2cc3ccccc3cc2o1 [SKA-104, 2-methylnaphtho[2,3-d]oxazole]",,completely abolished activity,EC50 (KCa3.1): > 50000 nM
"Cc1cc2oc(N)nc2c2ccccc12 [SKA-120, 5-Methylnaphtho[1,2-d]oxazol-2-amine]",,,"pEC50 (KCa3.1; 250 nM free Ca2+, read-out: EC50 for KCa3.1 activation): 6.74; EC50 (KCa3.1): 450 nM; selectivity for KCa3.1 over KCa2.3 (KCa3.1; ratio of EC50 values): ~50 fold"

# The next lines start with results.
melting point,effect of structural change on KCa2.3 and KCa3.1 activation compared with SKA-31 (KCa3.1),Structure (SMILES),other results
200 °C,reduced both potency and selectivity,"COc1cccc2c1CCc1sc(N)nc1-2 [SKA-114, 6-Methoxy-4,5-dihydronaphtho[1,2-d]thiazol-2-amine]",
109 °C (dec.),reduced both potency and selectivity,"CC1Cc2sc(N)nc2-c2ccccc21 (stereo not drawn) [SKA-113, 5-Methyl-4,5-dihydronaphtho[1,2-d]thiazol-2-amine]",
159 °C,reduced both potency and selectivity,"Cc1cc(C)c2c(c1)-c1nc(N)sc1CC2 [SKA-108, 6,8-Dimethyl-4,5-dihydronaphtho[1,2-d]thiazol-2-amine]",
157 °C,,"Cc1cc(C)c2ccc3sc(N)nc3c2c1 [SKA-109, 6,8-Dimethylnaphtho[1,2-d]thiazol-2-amine]",reduction of potency compared with SKA-31 (KCa3.1): 10 fold
265 °C,reduced potency and selectivity,"N#Cc1cc2sc(N)nc2c2ccccc12 [SKA-107, 2-Aminonaphtho[1,2-d]thiazole-5-carbonitrile]",
161 °C,reduction in potency,"Nc1nc2c(ccc3sccc32)s1 [SKA-110, Thieno[2′,3′:5,6]benzo[1,2-d]thiazol-2-amine]",
213 °C,reduced potency and selectivity,"COc1cc2sc(N)nc2c2ccccc12 [SKA-117, 5-Methoxynaphtho[1,2-d]thiazol-2-amine]",
